Assay results taken from ChEMBL document CHEMBL1130976, “5-Aminomethylquinoxaline-2,3-diones. Part I: A novel class of AMPA receptor antagonists” (Bioorg Med Chem Lett, 1998).

Columns and labels:
[1] = biological target: Glutamate receptors; NMDA/AMPA; assay: In vitro binding affinity to the AMPA receptor using [3H]AMPA binding assay; type: protein-complex assay
[2] = tested on: Mus musculus; assay: Tested for anticonvulsion activity in the metrazole-induced convulsion assays in mice after 30 min of ip administration; type: functional; conditions: 0.5 h
[3] = tested on: Mus musculus; assay: Tested for anticonvulsion activity in the electroshock-induced convulsion assays in mice at 50 mg/kg after 30 min (i.p. administration ); type: functional; conditions: route intraperitoneal
[4] = biological target: Glutamate receptor ionotropic, AMPA (Rattus norvegicus) (UniProt P19491+P19492+P19493+P19490); assay: Tested for in vitro binding affinity against AMPA receptor using [3H]AMPA binding assay at a concentration of 1 uM; type: protein-complex assay
[5] = tested on: Mus musculus; assay: Tested for anticonvulsion activity in the electroshock-induced convulsion assays in mice after 30 min of ip administration; type: functional; conditions: 0.5 h
[6] = biological target: Glutamate receptor ionotropic, NMDA 1 (Rattus norvegicus, UniProt P35439); assay: Tested for in vitro binding affinity against glycine-bining site of NMDA receptor using [3H]MDL-105519 binding assay
[7] = tested on: Mus musculus; assay: Tested for anticonvulsion activity in the mice after 1 hr pretreatment of oral administration; type: functional
[8] = tested on: Mus musculus; assay: Tested for anticonvulsion activity in the electroshock-inducedconvulsion assays in mice at 50 mg/kg after 30 min (i.p. administration ); type: functional; conditions: route intraperitoneal
[9] = Tested for solubility in water at pH 7.4; type: ADME

| SMILES | IC50 [1] [nM] | further results |
| --- | --- | --- |
| O=C(O)[C@H]1[C@H](O)CCN1Cc1cc2nc(O)c(O)nc2cc1[N+](=O)[O-] | 2100 |  |
| CN1CCN(Cc2cc3nc(O)c(O)nc3cc2[N+](=O)[O-])CC1 | 3400 |  |
| Br.O=[N+]([O-])c1cc2nc(O)c(O)nc2cc1CN1CCCC1 | 280 | ED50 [2]: 26 mg/kg; Protection [3]: 40% |
| O=C(O)C1CCN(Cc2cc3nc(O)c(O)nc3c([N+](=O)[O-])c2Br)CC1 |  | inhibition [4]: 15% |
| Br.O=[N+]([O-])c1cc2nc(O)c(O)nc2cc1CN1CCC(O)C1 (stereo not given) | 330 | ED50 [5]: 34 mg/kg |
| O=[N+]([O-])c1cc2nc(O)c(O)nc2cc1CN1CCC(c2ccccc2)CC1 | 430 | IC50 [6]: 330 nM |
| O=C(O)C1CCN(Cc2cc3nc(O)c(O)nc3cc2Br)CC1 | 890 |  |
| Br.CC1CCN(Cc2cc3nc(O)c(O)nc3cc2[N+](=O)[O-])CC1 | 370 | ED50 [5]: 33 mg/kg; ED50 [7]: 54 mg/kg; ED50 [2]: 16 mg/kg |
| O=[N+]([O-])c1cc2nc(O)c(O)nc2cc1CN1CCC(O)CC1 | 310 |  |
| O=C(O)C1CCCCN1Cc1cc2[nH]c(=O)c(=O)[nH]c2cc1Br (stereo not given) |  | IC50 [6]: 840 nM |
| O=[N+]([O-])c1cc2nc(O)c(O)nc2cc1CN1CC=CCC1 | 360 |  |
| CCOC(=O)C1CCN(Cc2cc3nc(O)c(O)nc3cc2[N+](=O)[O-])CC1 | 350 | IC50 [6]: 590 nM |
| Br.O=[N+]([O-])c1cc2nc(O)c(O)nc2cc1CN1CC=CC1 | 490 | Protection [8]: 60%; ED50 [2]: 35 mg/kg |
| O=C(O)C1CCCN(Cc2cc3nc(O)c(O)nc3cc2Br)C1 (stereo not given) | 2500 |  |
| CC1CN1Cc1cc2nc(O)c(O)nc2cc1[N+](=O)[O-] (stereo not given) | 2200 |  |
| O=[N+]([O-])c1cc2nc(O)c(O)nc2cc1CN1CCCC(CO)C1 (stereo not given) | 520 |  |

| SMILES | IC50 [1] [nM] | further results |
| --- | --- | --- |
| Br.O=C(O)C1CCN(Cc2cc3nc(O)c(O)nc3cc2[N+](=O)[O-])CC1 | 70 | ED50 [5]: 44 mg/kg; IC50 [6]: 3900 nM; solubility [9]: 1680 µg/mL |
| O=[N+]([O-])c1cc2nc(O)c(O)nc2cc1CN1CCCC(O)C1 (stereo not given) | 430 |  |
| O=[N+]([O-])c1cc2nc(O)c(O)nc2cc1CN1CCC1 | 1500 | IC50 [6]: 3800 nM |
| O=C(O)C1CCCCN1Cc1cc2nc(O)c(O)nc2cc1Br (stereo not given) |  | inhibition [4]: 18% |
| O=[N+]([O-])c1cc2nc(O)c(O)nc2cc1CN1CCOCC1 | 660 |  |
| O=[N+]([O-])c1cc2nc(O)c(O)nc2cc1CN1CCCCCC1 | 580 |  |
| O=[N+]([O-])c1cc2nc(O)c(O)nc2cc1CN1CCCCC1 | 290 |  |
| O=C(O)[C@H]1CCCN1Cc1cc2nc(O)c(O)nc2cc1[N+](=O)[O-] | 460 |  |
| O=[N+]([O-])c1cc2nc(O)c(O)nc2cc1CN1CCCC1CO (stereo not given) | 700 |  |
| CC1CCCN(Cc2cc3nc(O)c(O)nc3cc2[N+](=O)[O-])C1 (stereo not given) | 600 |  |
| NC(=O)C1CCN(Cc2cc3nc(O)c(O)nc3cc2[N+](=O)[O-])CC1 | 760 |  |
| O=C(O)C1(c2ccccc2)CCN(Cc2cc3nc(O)c(O)nc3cc2[N+](=O)[O-])CC1 | 2000 |  |
| CCN(CC)Cc1cc2nc(O)c(O)nc2cc1[N+](=O)[O-] | 840 |  |
| COC1CCN(Cc2cc3nc(O)c(O)nc3cc2[N+](=O)[O-])CC1 | 430 |  |
| O=[N+]([O-])c1cc2nc(O)c(O)nc2cc1CN1CCNCC1 | 11000 |  |
